Tests used:
[1] = tested on: HIV viruses (cell line C8166); experiment: in vitro anti-HIV protection assay in cell line C8166; type: cell-based
Excerpt: (§1) This is usually substantially more difficult to protect so, for example, in the case of the use of 3-azide-3'-deoxythymidine (AZT), a 100-fold higher dosage is needed than in the use of the compound of the present invention.
(§2) The above assay is described in the Journal of the National Cancer Institute, Vol. 81, No. 8, Apr. 19, 1989.

[2] = tested on: HIV viruses (CEM-IW cell line); experiment: in vitro anti-HIV assay in CEM-IW cell line; type: cell-based; conditions: Human immunodeficiency virus 1
Excerpt: as §1, §2

[3] = tested on: HIV viruses (T-lymphocytes); experiment: protection of T-lymphocytes against the cytopathic effect of HIV viruses; type: cell-based
HIV viruses = experiment: CPE cell line assay against p24 antigen; type: cell-based; conditions: Human immunodeficiency virus 1, in vitro
Excerpt: as §1, §2

reverse transcriptase = reverse transcriptase (Human immunodeficiency virus type 1 group M subtype B, UniProt P04585); experiment: inhibition of reverse transcriptase; type: biochemical; conditions: in vitro
Excerpt: as §1

Row | Compound | dosage needed relative to the compound of the present invention ([1]; cell line C8166, higher dosage needed) [fold] | EC50 [2] [µM] | protection of T-lymphocytes against the cytopathic effect of HIV viruses [3] | EC50 (HIV viruses) [µM] | values found for the cell line C8166 compared with the other cell line values ([1]; cell line C8166, usually substantially more difficult to protect) | IC50 (reverse transcriptase) [µM]
1 | Cc1cn([C@H]2C[C@H](N=[N+]=[N-])[C@@H](CO)O2)c(=O)[nH]c1=O [AZT, 3-azide-3'-deoxythymidine, reference compound] | 100 |  |  |  |  | 
2 | O=S1(c2ccccc2)=NC(=S)Nc2ccccc21 (stereo not drawn) [Example 1, 3,4-Dihydro-1-phenyl-3-thio-1,2,4-benzothiadiazine 1-oxide] |  | ~2 | complete protection | ~1.65 | comparable values | 2

Reference: patent publication US5321024A, “Antiviral pharmaceutical composition for treating lymphocytes” (Godecke Aktiengesellschaft, priority 1991, dated 1994)
